Data from patent US20240100062A1, “Methods of Treatment With an Iboga Alkaloid” (priority 2022, published 2024).

Assays:
[1] = tested on: special operations veterans; test: Structural T1w MRI, FreeSurfer regional volume and cortical thickness; format: in vivo, human
Protocol: Structural imaging of the brain was also conducted on some of the subjects of Example 1. Gray matter constitutes about 40% of the brain and white matter constitutes about 60% of the brain. Gray matter contains most of the brain's neuronal cell nodes, it is fully developed once a person reaches their 20's and interprets sensor information from various parts of the body. White matter is made up of bundles which connect various gray matter areas, it develops throughout the 20's and peaks in middle age, Typical metrics analyzed in anatomical (T1-weighted, “T1w”) imaging include volume and/or shape of nuclei (e.g. caudate), volume and/or shape of ventricles of the brain, and cortical thickness (mm). These metrics can be used to study normal and abnormal neuroanatomy and are primarily used to quantify gray matter. A tool called FreeSurfer was applied to images for a T1w structural analysis (volume, cortical thickness) to adjust for bias, remove non-brain matter, segments by tissue, parcels the brain into standardized regions, and provides measurements of those regions. FreeSurfer measurements of whole brain volume, volume by tissue (gray, white, CSF), estimated intracranial volume (ICV), subcortical gray matter volume, cortical volume by region were done. […] In particular, analysis was done to determine if there was any loss in gray matter volume or cortical thickness, whether there was a loss in white matter volume or an increase in presence of white matter hypotensities.
The fMRI images were also inspected to determine the difference in volume in regional areas of the brain from baseline to one month after treatment. FIG. 8A is a bar graph showing the effect size of a change in volume in 47 brain regions indicated along the x-axis. […] The fMRI images were also inspected for whole brain thickness at baseline and one month after treatment. […] FIG. 8B is a bar graph showing the effect size of a cortical thickness change for the brain regions indicated along the x-axis, from baseline to one month after treatment. […] The right and left parahippocampal gyrus are involved in visuospatial processing, including scene perception, navigation, and emotional contextualization. The left orbitofrontal gyrus is involved in impulse control and reward valuation. The left insular cortex is associated with both the affective-perceptual and cognitive-evaluative forms of empathy, as well as awareness of hunger, pain and fatigue. The left entorhinal cortex is a widespread network hub for memory, navigation, and perception of time.

[2] = tested on: special operations veterans; test: Predicted brain age from MRI (brain age model); format: in vivo, human
Source text: A predictive model of normal aging defined using machine learning in healthy individuals, based on magnetic resonance imaging-derived estimates of gray matter and white matter (Id.) was applied to the MRI images from the subjects enrolled in the study of Example 1. […] There was a significant reversal of brain age from baseline to one month after treatment. The mean decrease in brain age was 1.3 years (corrected p=0.03).
At baseline, the brain age estimate for the 24 subjects was 40.89 years. […] The average decrease in brain age from baseline one month after treatment was 1.4 years.

[3] = tested on: special operations veterans; test: Resting-state fMRI functional connectivity (Example 2); format: in vivo, human; details: within a few days after treatment; persisted to one-month post treatment; 5000 pairs tested
Source text: The human brain is a series of well-organized and optimized series of efficient networks. Disease states can be characterized as abnormalities or inefficiencies in the networks and/or the global organization. Resting-state functional connectivity is one method to characterize disease states and effects of interventions. The functional connectivity networks evaluated in a region of interest in the brain included those identified in Table 2-1 of Example 2.
The subjects were asked to clear their mind of any particular thoughts in order to capture the brain at rest or in its ‘default’ state. An a priori region of interest was determined for analysis and 5000 functional connectivity pairs were tested. The underlying alteration in brain patterns (connectivity) due to an intervention was evaluated.

[4] = tested on: BDNF and GDNF; details: cited from earlier work

## CCC1CC2CC3c4[nH]c5ccc(OC)cc5c4CCN(C2)C13 (centres unmarked) [ibogaine, Ibogaine]
[1]; 17 subjects, two-tailed p = 0.0789, left tailed p = 0.9606, right-tailed p = 0.0394
  White matter hypointensities (corrected for cerebral white matter), baseline vs. one month post treatment: Two-tailed: no significant differences
[1]; 17 subjects, two-tailed p = 0.0949, left tailed p = 0.0475, alpha = 0.05
  Subcortical Gray Matter volume, baseline vs. one month post treatment: Two-tailed: no significant differences
[1]; 17 subjects, two-tailed p = 0.4755, alpha = 0.05
  Total Gray Matter volume, baseline vs. one month post treatment: Two-tailed: no significant differences
[1]; 17 subjects, two-tailed p = 0.4847, alpha = 0.05
  Cortical Gray Matter volume, baseline vs. one month post treatment: Two-tailed: no significant differences
[1]; 47 brain regions (FIG. 8A)
  Regional brain volume increases, baseline to one month after treatment: Increases in volume were observed in the cerebral white mater (left) and the left ventral DC
[1]; baseline to one month after treatment (FIG. 8B)
  Regional cortical thickness change: Increases in cortical thickness one-month after treatment was observed in left entorhinal cortex, left-lateral-orbitofrontal pole, parahippocampal gyrus (bilaterally), left insular cortex, and right-pars triangularis (inferior frontal gyrus)
[1]; one month after treatment vs baseline, two-tailed p=0.7146, alpha=0.05
  Left hemisphere mean thickness: no significant difference from baseline
[1]; one month after treatment vs baseline, two-tailed, alpha=0.05
  Right hemisphere mean thickness: no significant difference from baseline
[1]; treated subjects, one month after treatment
  Inspection of brain volume and thickness for damage: no apparent damage to the brain
[2]; baseline to one month after treatment, corrected p=0.03 (FIG. 9A)
  Mean decrease in brain age: 1.3 years
[2]; one-month post treatment (FIG. 9D)
  Estimated brain age compared to accelerated intermittent theta burst stimulation (aiTBS): provided a reducing in estimated brain age one-month post treatment compared to aiTBS
[2]; weights .5-.5-1, Sig 0.008, 95% 0.352 to 2.087
  Brain age contrast Estimate, Baseline & 1 wk. vs 1 mo.: 1.220 years
[3]
  Reorganization of functional connection pairs in the brain networks, number of pairs: 22
[4]
  Transcription of neurotrophic factors including BDNF and GDNF: increases the transcription of neurotrophic factors
